{
  "source": "paper doi:10.1101/2025.08.19.670962",
  "about": "“Structural basis for binding of RILPL1 to TMEM55B reveals a lysosomal platform for adaptor assembly through a conserved TBM motif” (bioRxiv, 2025)",
  "note": "Entries after “also recorded” stand apart in the source; their conditions may differ.",
  "data": [
    {"test_system": "R151E variant of TMEM55B", "test": "In vitro pulldown of TMEM55B R151E variant with His-tagged bait peptides (negative control)", "format": "binding", "conditions": "10 μM bait, 10 μM prey, Ni2+-agarose, 20 mM Tris pH 8.0, 300 mM NaCl, 20 mM imidazole, SDS-PAGE, Coomassie, qualitative", "text": "(§1) Figure 5: In vitro pulldowns of TMEM55B with TBM peptides. (A) Domain organization of TMEM55B interactors depicting the sequence context of the TBM. Regions that are α-helical have been drawn as cylinders; α/βfolds are shown as rectangles; and unstructured segments are zigzag lines. (B) Cartoon depiction of the in vitro pulldown strategy using His-tagged peptides. […] As a control, the R151E variant of TMEM55B was used, which abolishes the interactions with RILPL1 (bottom panel). […] Protein/peptide concentrations were 10μM (see Methods) and visualization was enabled by Coomassie Brilliant Blue G250.\nGiven that the TBMs reside in flexible regions of the adaptor proteins (Figure 5A), peptides should be able to mimic their interactions with TMEM55B. Peptides corresponding to the potential TBMs were synthesized with an N-terminal hexahistidine tag to enable in vitro pulldowns of TMEM55B (80-166; Figure 5B). Slightly extended peptides beyond the minimal TBMs were generated to preclude any structural or conformational restrictions on the interaction with TMEM55B. The peptide TBM from RILPL1 was used as a positive control, and the mutant R151E™ of TMEM55B provided a negative control. Peptides run on conventional SDS-PAGE gels are generally not visible in this assay. […]", "values": [
      {"sequence": "HHHHHHGSGYTEQGQEALQHL [His-tagged RILPL1 peptide, RILPL1 391-403 TBM peptide with N-terminal hexahistidine tag; direct pulldown, ITC]", "pulldown of R151E variant of TMEM55B by His-tagged bait": "abolished"}
    ]},
    {"test_system": "WT TMEM55B region 80-166", "test": "In vitro pulldown of untagged TMEM55B with His-tagged bait peptides", "format": "binding", "conditions": "10 μM bait, 10 μM prey, Ni2+-agarose, 20 mM Tris pH 8.0, 300 mM NaCl, 20 mM imidazole, 15 minutes; SDS-PAGE, Coomassie; qualitative", "text": "as §1\nGiven that the TBMs reside in flexible regions of the adaptor proteins (Figure 5A), peptides should be able to mimic their interactions with TMEM55B. Peptides corresponding to the potential TBMs were synthesized with an N-terminal hexahistidine tag to enable in vitro pulldowns of TMEM55B (80-166; Figure 5B). Slightly extended peptides beyond the minimal TBMs were generated to preclude any structural or conformational restrictions on the interaction with TMEM55B. The peptide TBM from RILPL1 was used as a positive control, and the mutant R151E™ of TMEM55B provided a negative control. Peptides run on conventional SDS-PAGE gels are generally not visible in this assay.\nIn vitro pulldowns were conducted using hexahistidine tagged peptides of interacting proteins as bait, as described in dx.doi.org/10.17504/protocols.io.dm6gpqk91lzp/v2. If not stated otherwise 10μM of bait peptide or the hexahistidine tagged PH domain of OCRL was mixed with 10μM of prey TMEM55B80-166 or TMEM55B80-160 in 1.5 mL centrifuge tubes with 25 μl Ni^2+-agarose resin in a final volume of 1ml of binding buffer (20 mM Tris pH 8.0, 300 mM NaCl, 20mM Imidazole, 10 mM β-mercapotoethanol). The reaction mixture was subjected to gentle shaking for 15 minutes. The resin was collected by gentle centrifugation (1,000 rpm) and washed 3 times with 1 ml of the binding buffer. Following release of proteins from the resin with 50μl elution buffer (20 mM Tris-Cl pH 8.0, 300 mM NaCl, 200mM imidazole), samples were subjected to SDS-PAGE and stained with Coomassie Brilliant Blue[26].", "values": [
      {"sequence": "HHHHHHGSDDLEQATEALDS [WDR81, His-tagged WDR81 657-668 TBM peptide used as pulldown bait]", "pulldown of untagged WT TMEM55B (80-166) by His-tagged bait": "interact with TMEM55B"},
      {"sequence": "HHHHHHGSGYTEQGQEALQHL [His-tagged RILPL1 peptide, RILPL1 391-403 TBM peptide with N-terminal hexahistidine tag; direct pulldown, ITC]", "pulldown of untagged WT TMEM55B (80-166) by His-tagged bait": "clear band"},
      {"sequence": "HHHHHHGSTAEEATEATEG [JIP4, His-tagged JIP4 887-897 TBM peptide used as pulldown bait]", "pulldown of untagged WT TMEM55B (80-166) by His-tagged bait": "interact with TMEM55B"},
      {"sequence": "HHHHHHGSVQEAEETLLID [OCRL, His-tagged peptide corresponding to the TBM of OCRL, residues 65-75]", "pulldown of untagged WT TMEM55B (80-166) by His-tagged bait": "failed to pulldown TMEM55B; also recorded: did not significantly interact"},
      {"sequence": "HHHHHHSQSTEEATEATEVPD [JIP3, His-tagged JIP3 889-903 TBM peptide used as pulldown bait]", "pulldown of untagged WT TMEM55B (80-166) by His-tagged bait": "interact with TMEM55B"}
    ]}
  ]
}
